# Patent US9447086B2, “6-amino acid heteroaryldihydropyrimidines for the treatment and prophylaxis of hepatitis B virus infection” (priority 2012, dated 2016)
# pEC50: −log10 of the molar value. Where two headings read alike, the source gives them in different places. Marks after values point to notes of the source that are not given here.
# Assays:
# HBV [1] = test: Anti-HBV activity in vitro in HepG2.2.15 cells (extracellular HBV DNA by qPCR); assay type: cell-based, Hepatitis B virus; settings: HepG2.2.15 cells, in-house data, read-out: EC50
# Summary of the method: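 HepG2.2.15 cells, which constitutively produce HBV, were seeded overnight and then treated for 5 days with half-log serially diluted compounds at 0.5% final DMSO. Extracellular HBV DNA in culture supernatant was extracted and quantified by qPCR.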
# [2] = Mouse SDPK (single dose PK in male ICR mouse, plasma and liver); assay type: in vivo; settings: male ICR mice; for bioavailability / AUC(0-inf) / clearance: mouse; for bioavailability: 1 mg/kg IV, 3 mg/kg PO, read-out: F (bioavailability); for clearance: read-out: Plasma Cl (IV)
# Experimental: The single dose PK in male ICR mouse was performed to assess their pharmacokinetic properties. Two groups of animals were dosed via either bolus intravenous (IV) or oral gavage (PO) of the respective compound. The animals for oral administration were fasted overnight prior to dosing and food was resumed 4 hours postdose. Blood samples (approximately 400 μL) were collected via cardiac puncture after euthanasia by carbon dioxide inhalation at 2 mins, 5 mins, 15 mins, 30 mins, 1 h, 2 hrs, 4 hrs, 6 hrs, 8 hrs, and 24 hrs postdose for IV group, and at 5 mins, 15 mins, 30 mins, 1 h, 2 hrs, 4 hrs, 6 hrs, 8 hrs, and 24 hrs postdose for PO group. Blood samples were placed into tubes containing sodium heparin and centrifuged at 8000 rpm for 6 minutes at 4° C. to separate plasma from the samples. Following centrifugation, the resulting plasma was transferred to clean tubes for bioanalysis on LC/MS/MS. The pharmacokinetic parameters were calculated using non-compartmental module of WinNonlin® Professional 5.2.
# HBV [3] = settings: literature data, Deres K. et al. Science 2003, 893-896; cited from earlier work
# [4] = literature data, Deres K. et al. Science 2003, 893-896; cited from earlier work
# [5] = Cytotoxicity (CC50) in HepDE19 cells, CCK-8 cell viability; assay type: cell-based; settings: human, HepDE19 cells; read-out: CC50
# Summary of the method: (§1)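 HBV-transfected HepG2-derived HepDE19 cells grown in DMEM-F12 with 10% FBS and G418. Viability read five days after treatment by CCK-8, 2 h at 37 °C, absorbance at 450 and 630 nm.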
# HBV [6] = test: Selectivity index (CC50 value/EC50 value); assay type: cell-based, Hepatitis B virus
# Summary of the method: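 Ratio of CC50 to EC50, measuring antiviral activity against HBV relative to cytotoxicity in vitro; higher values indicate greater separation between viral inhibition and cell death.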
# [7] = Metabolic stability study in human microsome; assay type: in vitro ADME
# Summary of the method: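 Human liver microsomes (0.5 mg/mL) with 1 μM compound in 100 mM phosphate pH 7.4 at 37 °C, started with 1 mM NADPH or an NADPH-regenerating system. Samples taken at 0, 3, 6, 9, 15 and 30 min, quenched in methanol. Parent remaining measured by LC-MS/MS; no-cofactor controls included.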
# [8] = Lyophilisation solubility assay (Lysa); assay type: physicochemical; settings: phosphate buffer, pH 6.5, aqueous buffer, thermodynamic from solid
# Summary of the method: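 Duplicate samples from 10 mM DMSO stocks are dried, redissolved in 0.05 M phosphate buffer pH 6.5, stirred 1 h, shaken 2 h and left overnight. Filtrate and its 1/10 dilution are quantified by direct UV or HPLC-UV, giving solubility in μg/mL.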
# HepDE19 cells = test: Cytotoxicity (CC50) in HepDE19 cells, CCK-8 cell viability; assay type: cell-based
# Summary of the method: as §1
# [9] = plasma, dose 1 mg/kg IV, read-out: Plasma AUC(0-∞) (IV)
# [10] = plasma, dose 3 mg/kg PO, read-out: Plasma AUC(0-∞) (PO)
SMILES,pEC50 (HBV [1]),"F (bioavailability) ([2]; plasma, 5 mg/kg IV, 30 mg/kg PO) [%]","Plasma AUC(0-∞) (IV) ([2]; plasma, dose 5 mg/kg IV) [ng·h/mL]","Plasma Cl (IV) ([2]; plasma, dose 5 mg/kg IV) [mL/min/kg]","Plasma AUC(0-∞) (PO) ([2]; plasma, dose 30 mg/kg PO) [ng·h/mL]",pEC50 (HBV [3]),F (bioavailability) [4],Plasma Cl (IV) [4],pEC50 (HBV [1]; Hepatitis B virus),CC50 at 5 days [5] [nM],Selectivity index (CC50/EC50) (HBV [6]),Liver AUC(0-∞) (PO) ([2]; dose 3 mg/kg PO) [ng·h/mL],bioavailability ([2]; plasma) [%],"AUC(0-inf) [2, 9] [ng·h/mL]","clearance ([2]; plasma, dose 1 mg/kg IV) [mL/min/kg]","AUC(0-inf) [2, 10] [ng·h/mL]",Human Hepatic Clearance [7] [mL/min/kg],solubility thermodynamic [8] [µg/mL],CC50 (HepDE19 cells) [nM],"Plasma AUC(0-∞) (PO) ([2]; plasma, dose 3 mg/kg PO) [ng·h/mL]"
"COC(=O)C1=C(C)NC(c2ncc(F)cc2F)=N[C@H]1c1ccc(F)cc1Cl [Bay 41-4109, reference compound]",7.06,21,1380,60,1740,7.30,(31^1) %,(67^1) mL/min/kg,–,–,–,–,–,–,–,–,–,–,–,–
"COC(=O)C1=C(CN2CC(F)(F)C[C@H]2C(=O)O)NC(c2nc(C)cs2)=N[C@H]1c1ccc(F)cc1Cl [Example 16, (R)-6-((S)-2-Carboxy-4,4-difluoro-pyrrolidin-1-ylmethyl)-4-(2-chloro-4-fluoro-phenyl)-2-(4-methyl-thiazol-2-yl)-1,4-dihydro-pyrimidine-5-carboxylic acid methyl ester]",–,–,–,–,–,–,–,–,8.70,30000,15000,35200,69,290,57,598,6.35,> 622,–,–
"COC(=O)C1=C(CN2CC(F)(F)C[C@H]2C(=O)O)NC(c2nccs2)=N[C@H]1c1ccc(F)cc1Cl [Example 2, (R)-6-((S)-2-Carboxy-4,4-difluoro-pyrrolidin-1-ylmethyl)-4-(2-chloro-4-fluoro-phenyl)-2-thiazol-2-yl-1,4-dihydro-pyrimidine-5-carboxylic acid methyl ester]",–,–,–,–,–,–,–,–,8.57,85000,31481,18000,94,995,17,2790,3.65,> 698,–,–
"COC(=O)C1=C(CN2CCOC[C@H]2C(=O)O)N=C(c2nccs2)N[C@H]1c1ccc(F)cc1Cl [Example 5, (S)-4-[(R)-6-(2-Chloro-4-fluoro-phenyl)-5-methoxycarbonyl-2-thiazol-2-yl-3,6-dihydro-pyrimidin-4-ylmethyl]-morpholine-3-carboxylic acid]",–,–,–,–,–,–,–,–,–,–,–,11800,37,878,19,–,2.7,> 660,> 100000,962
